The NIST ThermoML archive (doi:10.1016/j.jct.2017.01.007)
Several values for one entry are separate records, joined by “and”; a condition that tells them apart may be missing. Equal values may be shown once. ± gives the expanded uncertainty stated by the source.

Settings: Pendant drop shape

Question: Which surface tension liquid-gas (283.2 K) does the source give for O [water] here?
Answer: 74.8 ± 2.3 mN/m and 74.83 ± 2.1 mN/m

Question: And the surface tension liquid-gas (288.2 K)?
Answer: 73.65 ± 2.3 mN/m and 73.67 ± 2.1 mN/m

Question: What about the surface tension liquid-gas (293.2 K) of the same compound?
Answer: 73.07 ± 2.1 mN/m and 73.03 ± 2.1 mN/m

Question: What about the surface tension liquid-gas (298.2 K) of the same compound?
Answer: 72.21 ± 2.2 mN/m and 72.13 ± 2.1 mN/m
